Data from ChEMBL document CHEMBL4414607, “Protein Stability Effects in Aggregate-Based Enzyme Inhibition” (J Med Chem, 2019).

Experiments:
[1] = test system: Bacteria; test: Binding affinity to bacterial Beta-lactamase TEM-1 M182T mutant assessed as change in melting temperature at 100-fold molar excess compound concentration relative to apo-enzymes by SYPRO Orange dye based differential scanning fluorimetry
[2] = test system: Bacteria; test: Binding affinity to bacterial Beta-lactamase TEM-1 M182T/G238S mutant assessed as change in melting temperature at 100-fold molar excess compound concentration relative to apo-enzymes by SYPRO Orange dye based differential scanning fluorimetry
[3] = molecular target: Beta-lactamase TEM (Bacteria) (UniProt P62593); test: Binding affinity to bacterial wild type Beta-lactamase TEM-1 assessed as change in melting temperature at 100-fold molar excess compound concentration relative to apo-enzymes by SYPRO Orange dye based differential scanning fluorimetry
[4] = test system: Bacteria
[5] = test system: Bacteria; test: Binding affinity to bacterial Beta-lactamase TEM-1 G238S mutant assessed as change in melting temperature at 100-fold molar excess compound concentration relative to apo-enzymes by SYPRO Orange dye based differential scanning fluorimetry
[6] = test system: Bacteria; test: Binding affinity to bacterial Beta-lactamase TEM-1 D179G mutant assessed as change in melting temperature at 100-fold molar excess compound concentration relative to apo-enzymes by SYPRO Orange dye based differential scanning fluorimetry

Sequence of Beta-lactamase TEM (Bacteria) (P62593 whole entry): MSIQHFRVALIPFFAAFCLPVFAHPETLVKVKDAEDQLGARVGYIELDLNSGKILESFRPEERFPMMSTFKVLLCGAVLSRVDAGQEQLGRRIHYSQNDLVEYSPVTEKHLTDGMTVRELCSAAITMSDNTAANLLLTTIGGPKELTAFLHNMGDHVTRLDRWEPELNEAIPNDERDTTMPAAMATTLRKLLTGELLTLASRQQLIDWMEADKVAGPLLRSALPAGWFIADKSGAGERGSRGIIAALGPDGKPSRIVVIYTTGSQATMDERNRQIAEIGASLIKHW

For `CO[C@@]1(NC(=O)[C@H](C(=O)O)c2ccc(O)cc2)C(=O)N2C(C(=O)O)=C(CSc3nnnn3C)CO[C@@H]21`, the ΔTm [1] was -4.1 °C, the ΔTm [2] was -0.7 °C and the ΔTm [3] was -4.5 °C. It also gave a ΔTm [4] of -3.3 °C, a ΔTm [5] of -1.9 °C and a ΔTm [6] of 2.9 °C.
